{
  "source": "patent US8846653B2",
  "about": "“Delta-tocotrienol treatment and prevention of pancreatic cancer” (University of South Florida, priority 2006, dated 2014)",
  "molecules": {"B1": {"name": "TRAIL: positive control for cell death (protein, UniProt P50591 1-281, looked up)", "Tumor necrosis factor ligand …": "MAMMEVQGGPSLGQTCVLIVIFTVLLQSLCVAVTYVYFTNELKQMQDKYSKSGIACFLKEDDSYWDPNDEESMNSPCWQVKWQLRQLVRKMILRTSEETISTVQEKQQNISPLVRERGPQRVAAHITGTRGRSNTLSSPNSKNEKALGRKINSWESSRSGHSFLSNLHLRNGELVIHEKGFYYIYSQTYFRFQEEIKENTKNDKQMVQYIYKYTSYPDPILLMKSARNSCWSKDAEYGLYSIYQGGIFELKENDRIFVSVTNEHLIDMDHEASFFGAFLVG"}},
  "type_in_all_cases": "cell-based, human",
  "key": {"MIA PaCa-2 cells": {"test_system": "MIA PaCa-2 cells", "experiment": "Trypan blue cell death, δ-tocotrienol, 5-FU or combination, 24 hours", "details": "MIA PaCa-2, 50 μM each", "experimental": "MIA PaCa-2 cells were treated vehicle or an anti-proliferative treatment comprising 50 μM δ-tocotrienol, 50 μM 5-FU, or 50 μM δ-tocotrienol and 50 μM 5-FU for 24 hours. Cells were harvested, fixed, permeablized and stained with trypan blue."}, "MIA PaCa2 cells": {"test_system": "MIA PaCa2 cells", "experiment": "MTT cell viability, δ-tocotrienol, fluorouracil or combination", "experimental": "FIG. 39 is a graph MIA PaCa2 pancreatic cancer cells (3×10^3) treated with indicated concentrations of delta-tocotrienol, fluorouracil (5FU), or a combination of the indicated delta-tocotrienol and 5FU.\nThe MiaPaCa 2 cells were plated as above into 96 well plates and treated the following day with increasing concentrations of δ-tocotrienol, fluorouracil (5FU), or a combination of δ-tocotrienol and fluorouracil. The cells were collected and analyzed for cell viability using an MTT assay. […] MIA PaCa2 cells (3×10^3) were cultured as described in the Examples above, in 96-well plates and treated the following day with vehicle, δ-tocotrienol, fluorouracil, or a combination of δ-tocotrienol and fluorouracil."}, "[1]": {"test_system": "MiaPaCa2 pancreatic cancer cells", "experiment": "Malignant transformation (Soft Agar) colony formation", "details": "MiaPaCa2, 50 μM, vs vehicle", "experimental": "FIG. 20 is a graph showing the effect of tocotrienols on pancreatic cancer malignant transformation (Soft Agar). […] Bars, SE (n=3). *p<0.001 vs. vehicle. **p<0.02 vs. vehicle. ***p<0.05 vs. vehicle. T=tocopherol, T3=tocotrienol.\nMiaPaCa2 cells (3×10^3) were cultured as described in the Examples above, in 96-well plates and treated with 50 μM of different tocopherol or tocotrienol."}, "[2]": {"test_system": "MIA PaCa-2 cells (pZWL vector and myrAKT)", "experiment": "Cell death (trypan blue) in vector and myrAKT MIA PaCa-2 cells", "details": "MIA PaCa-2 vector vs myr-AKT cells, 24 hours, compared to vehicle", "experimental": "FIG. 12 is a graph wherein MIA PaCa-2 cells (pZWL vector and myrAKT) were treated without serum vehicle or δ-tocotrienol (50 μM) for 24 hours, with and without a 10-hour caspase 8/3 inhibitor pretreatment. Cells were also treated with TRAIL as a positive control. Cells were then harvested, fixed, permeablized and stained with trypan blue.\nTo further identify the role of AKT in the apoptotic pathways noted in Example 2, functional overexpression of CA-AKT was analyzed in Mia-PaCa2 pancreatic cancer cells. MIA PaCa-2 cells were treated with pZWL vector and myrAKT, a retroviral vector encoding myristoylated AKT, with or without serum, vehicle, or δ-tocotrienol (40 or 50 μM) for 24 hours, with and without a 10-hour caspase 8 inhibitor pretreatment. Cells were also treated with TRAIL as a positive control. Cells were then harvested, fixed, permeablized and stained with trypan blue.\nThe myristoylated AKT rescued δ-tocotrienol suppression PI3K-AKT signaling. The MiaPaCa-2 parental cell lines were stably transfected using constitutively active myristoylated AKT in a pWZL vector construct to generate MiaPaCa-2AKT cells. […] Lastly, pretreatment with caspase 3, 8 and 9 inhibitors rescued tocotrienol induced cell death."}},
  "data": [
    {"molecule": "O=c1[nH]cc(F)c(=O)[nH]1", "note": "[5-FU, fluorouracil]", "values": [
      {"measurement": "cell death (Trypan Blue)", "setting": "MIA PaCa-2 cells", "value": "increased cell death"},
      {"measurement": "concentration at which the effect became significant vs vehicle", "setting": "MIA PaCa2 cells", "value": 50, "unit": "µM"}
    ]},
    {"molecule": "Cc1cc(O)cc2c1O[C@](C)(CCC[C@H](C)CCC[C@H](C)CCCC(C)C)CC2", "note": "[δ-tocopherol]", "values": [
      {"measurement": "malignant transformation (Soft Agar)", "setting": "[1]", "value": "no effect"}
    ]},
    {"molecule": "B1", "values": [
      {"measurement": "cell death", "setting": "[2]", "value": "comparable to vehicle"}
    ]}
  ]
}
